The source made the active and inactive calls. The calls are words filed in the database; no cut-off is given here.
Experiments:
Chorioallantoic membrane = assay: Antiangiogenic activity in chicken fertilized egg chorioallantoic membrane measured upto 72 hrs by CAM assay; format: functional, tissue-based; details: Gallus gallus, dose 0.01-2 µM, time hrs <=72
MDA-MB-231 [1] = assay: Cytotoxicity against human MDA-MB-231 cells assessed as reduction in cell viability by trypan blue assay; format: functional, cell-based
[2] = AUC (0 to 72 hrs) in Wistar rat at 5 mg/kg, po measured upto 72 hrs by HPLC-MS analysis; format: ADME, organism-based; parameters: route oral, dose 5 mg/kg, time <=72; details: in vivo
[3] = Toxicity in female Wistar rat assessed as periodic body stretching at 2000 mg/kg, po observed for 48 hrs; format: organism-based; details: in vivo
[4] = Toxicity in Wistar rat assessed as normal renal parenchyma with intact renal tubules and glomeruli without inflammatory or pathological changes at 2000 mg/kg, po and measured on day 15 by microscopic analysis; format: organism-based; details: in vivo, 360 h, time 15 day
[5] = Inhibition of VEGFR2 expression in human HUVEC at IC50 incubated for 48 hrs by fluorescence microscopic analysis relative to control; format: functional
[6] = Toxicity in Wistar rat assessed as effect on SGPT level at 5 to 2000 mg/kg, po and measured on day 15; format: organism-based; details: in vivo, 360 h, dose 5-2000 mg/kg, time 15 day
HepG2 [7] = assay: Induction of DNA damage in human HepG2 cells assessed as increase in length of comet tail with decrease in nuclear DNA content with complete DNA damage at IC50 incubated for 24 hrs by Comet assay; format: functional, cell-based
[8] = Toxicity in Wistar rat assessed as toxic signs at 5 to 300 mg/kg, po and observed for 14 days; format: organism-based; details: in vivo, 336 h, dose 5-300 mg/kg, time 14 day
HepG2 [9] = assay: Antimigratory activity against human HepG2 cells assessed as reduction in cell migration at IC50 incubated for 24 hrs by transwell migration assay; format: functional, cell-based
[10] = Toxicity in Wistar rat assessed as effect on hematological parameters at 5 to 2000 mg/kg, po and measured on day 15; format: organism-based; details: in vivo, 360 h, dose 5-2000 mg/kg, time 15 day
[11] = Toxicity in Wistar rat assessed as normal splenic tissue with normal red and white pulp with lymphoid cellular population at 2000 mg/kg, po and measured on day 15 by microscopic analysis; format: organism-based; details: in vivo, 360 h, time 15 day
MDA-MB-231 [12] = assay: Induction of apoptosis in human MDA-MB-231 cells assessed as viable cells at IC50 incubated for 72 hrs by Alexa Fluor488-annexin V/PI staining based flow cytometric analysis (Rvb= 99.4 %); format: functional
[13] = Toxicity in female Wistar rat assessed as difficult to breathe at 2000 mg/kg, po observed for 48 hrs; format: organism-based; details: in vivo
[14] = Inhibition of VEGF expression in human HUVEC at IC50 incubated for 48 hrs by FITC based flow cytometry analysis relative to control; format: functional
HUVEC [15] = assay: Antiproliferative activity against human HUVEC assessed as reduction in cell viability incubated for 24 hrs by MTT assay; format: functional, cell-based
HepG2 [16] = assay: Induction of apoptosis in human HepG2 cells assessed as necrotic cells by measuring orange-red coloured flourescence at IC50 incubated for 24 hrs by EtBr/AO staining based fluorescence microscopic analysis; format: functional, cell-based
HepG2 [17] = assay: Induction of apoptosis in human HepG2 cells assessed as late apoptotic cells by measuring green fluorescence membrane with fragmented red nucleus at IC50 incubated for 24 hrs by Alexa Fluor488-annexin V/PI staining based fluorescence analysis; format: functional, cell-based
[18] = Toxicity in Wistar rat assessed as body weight loss at 2000 mg/kg, po and observed for 1 week; format: organism-based; details: in vivo, 168 h, time 1 weeks
[19] = Toxicity in Wistar rat assessed as effect on relative weight of liver at 5 to 2000 mg/kg, po and measured on day 15; format: organism-based; details: in vivo, 360 h, dose 5-2000 mg/kg, time 15 day
[20] = Inhibition of VEGFR2 expression in human HUVEC assessed as mean fluorescence intensity at IC50 incubated for 48 hrs by fluorescence microscopic analysis (reference value: 1.448 +/- 0.01); format: functional
[21] = Toxicity in Wistar rat assessed as normal histoarchitecture of alveoli and bronchi in lungs without inflammatory or pathological changes at 2000 mg/kg, po and measured on day 15 by microscopic analysis; format: organism-based; details: in vivo, 360 h, time 15 day
HepG2 [22] = assay: Inhibition of epithelial-mesenchymal transition in TGF-beta-induced human HepG2 cells assessed as E-cadherin expression at IC50 incubated for 48 hrs by flow cytometry analysis (reference value: 2.92 %); format: functional; parameters: scale not given: the % may be the effect or the level left
[23] = Toxicity in female Wistar rat assessed as roughened fur at 2000 mg/kg, po observed for 48 hrs; format: organism-based; details: in vivo
[24] = Toxicity in Wistar rat assessed as effect on relative weight of lungs at 5 to 2000 mg/kg, po and measured on day 15; format: organism-based; details: in vivo, 360 h, dose 5-2000 mg/kg, time 15 day
HUVEC [25] = assay: Induction of apoptosis in human HUVEC assessed as early apoptotic cells at IC50 incubated for 48 hrs by annexin V-FITC and PI staining based flow cytometry (reference value: <1%); format: functional
HepG2 [26] = assay: Inhibition of epithelial-mesenchymal transition in TGF-beta-induced human HepG2 cells assessed as SNAIL expression at IC50 incubated for 48 hrs by flow cytometry analysis (reference value: 97.78 %); format: functional; parameters: scale not given: the % may be the effect or the level left
[27] = Toxicity in Wistar rat assessed as effect on relative weight of kidney at 5 to 2000 mg/kg, po and measured on day 15; format: organism-based; details: in vivo, 360 h, dose 5-2000 mg/kg, time 15 day
[28] = Toxicity in Wistar rat assessed as effect on total bilirubin level in serum at 5 to 2000 mg/kg, po and measured on day 15; format: organism-based; details: in vivo, 360 h, dose 5-2000 mg/kg, time 15 day
HepG2 [29] = assay: Cytotoxicity against human HepG2 cells assessed as reduction in cell viability by trypan blue assay; format: functional, cell-based
[30] = Toxicity in Wistar rat assessed as effect on ALP level in serum at 5 to 2000 mg/kg, po and measured on day 15; format: organism-based; details: in vivo, 360 h, dose 5-2000 mg/kg, time 15 day
HepG2 [31] = assay: Induction of mitochondrial membrane potential disruption in human HepG2 cells assessed as green fluorescence at IC50 incubated for 24 hrs by JC-10 staining based fluorescence assay; format: functional, cell-based
[32] = Toxicity in Wistar rat assessed as effect on body weight at 5 to 300 mg/kg, po and observed for 14 days; format: organism-based; details: in vivo, 336 h, dose 5-300 mg/kg, time 14 day
HepG2 [33] = assay: Induction of apoptosis in human HepG2 cells assessed as late apoptotic cells by measuring orange coloured nucleus at IC50 incubated for 24 hrs by EtBr/AO staining based fluorescence microscopic analysis; format: functional, cell-based
[34] = Toxicity in Wistar rat assessed as effect on uric acid level in serum at 5 to 2000 mg/kg, po and measured on day 15; format: organism-based; details: in vivo, 360 h, dose 5-2000 mg/kg, time 15 day
HepG2 [35] = assay: Induction of apoptosis in human HepG2 cells assessed as early apoptotic cells by measuring green fluorescence at IC50 incubated for 24 hrs by Alexa Fluor488-annexin V/PI staining based fluorescence analysis; format: functional, cell-based
HepG2 [36] = assay: Induction of ROS production in human HepG2 cells at IC50 incubated for 3 hrs by fluorescence microscopic analysis; format: functional, cell-based
[37] = Half life in Wistar rat at 5 mg/kg, po measured upto 72 hrs by HPLC-MS analysis; format: ADME, organism-based; details: in vivo
MDA-MB-231 [38] = assay: Cytotoxicity against human MDA-MB-231 cells assessed as reduction in cell viability incubated for 24 hrs by MTT assay; format: functional, cell-based
[39] = Toxicity in po dosed Wistar rat; format: organism-based; details: in vivo

Structure (SMILES): CC(=O)Nc1ccc(Oc2cccc3c(NC(=O)Nc4cccc(C(F)(F)F)c4)cccc23)cc1
- Activity (Chorioallantoic membrane): Dose-dependent effect
- IC50 (MDA-MB-231 [1]): 3580 nM
- inhibition (MDA-MB-231 [1]): Dose-dependent effect
- AUC(0-t) [2]: 621 µg·h/mL
- Activity [3]: Toxic
- Activity [4]: Non-Toxic
- fold change (FC) [5]: 0.37
- Activity [6]: Non-Toxic
- Activity (HepG2 [7]): Active
- Activity [8]: Non-Toxic
- Activity (HepG2 [9]): Active
- Activity [10]: Non-Toxic
- Activity [11]: Non-Toxic
- Activity (MDA-MB-231 [12]): 27.3%
- Activity [13]: Toxic
- fold change (FC) [14]: 0.39
- IC50 (HUVEC [15]): 9640 nM
- inhibition (HUVEC [15]): Dose-dependent effect
- Activity (HepG2 [16]): Active
- Activity (HepG2 [17]): Active
- Activity [18]: Toxic
- Activity [19]: Non-Toxic
- Flu intensity [20]: 1
- Activity [21]: Non-Toxic
- Activity (HepG2 [22]): 46.7%
- Activity [23]: Toxic
- Activity [24]: Non-Toxic
- Activity (HUVEC [25]): 37.53%
- Activity (HepG2 [26]): 10.26%
- Activity [27]: Non-Toxic
- Activity [28]: Non-Toxic
- IC50 (HepG2 [29]): 1170 nM
- inhibition (HepG2 [29]): Dose-dependent effect
- Activity [30]: Non-Toxic
- Activity (HepG2 [31]): Active
- Activity [32]: Non-Toxic
- Activity (HepG2 [33]): Active
- Activity [34]: Non-Toxic
- Activity (HepG2 [35]): Active
- Activity (HepG2 [36]): Active
- half-life [37]: 11.9 h
- inhibition (MDA-MB-231 [38]): Dose-dependent effect
- IC50 (MDA-MB-231 [38]; MDA-MB-231, 24 h): 1410 nM
- LD50 [39]: > 2000 mg/kg

From ChEMBL document CHEMBL4706603, “Discovery of VEGFR-2 inhibitors exerting significant anticancer activity against CD44+ and CD133+ cancer stem cells (CSCs): Reversal of TGF-β induced epithelial-mesenchymal transition (EMT) in hepatocellular carcinoma” (Eur J Med Chem, 2020)
